Data set [1] is described as follows: Oral bioavailability in Wistar rat at 10 mg/kg after 24 hrs by LC/MS/MS analysis. In kind it is ADME, organism-based. To be noted: in vivo.
A further data set concerns Liver microsomes. Nature of the data set: Intrinsic clearance in rat liver microsomes by LC/MS/MS analysis. In kind it is ADME, Microsome. In general terms: Liver microsomes are a subcellular fraction often used to study metabolism.
Data set [2] is described as follows: Apparent permeability across human Caco-2 cell membrane. The format is ADME, cell-based.
In the next data set the test system is A2780. Nature of the data set: Cytotoxicity against human A2780 cells after 96 hrs by MTT assay. In kind it is functional, cell-based. The settings on record: A2780, 96 h. For orientation: Tetrazolium assays rely on reduction of a dye to a coloured formazan, in cell work by metabolically active cells.
In data set [3] the test system is A549. The experiment in a line: Cell cycle arrest in asynchronous human A549 cells assessed as accumulation of cyclin B-negative diploid and tetraploid cells at G1 phase at 2 uM after 24 hrs by FACS analysis. The format is functional, cell-based.
A short description of data set [4]: Cytotoxicity against human MESSA cells after 96 hrs by MTT assay. The format is functional, cell-based. To be noted: MES-SA.
The nature of data set [5]: Half life in rat liver microsomes by LC/MS/MS analysis. The format is ADME, Microsome.
Another data set deals with MV4-11. Nature of the data set: Cytotoxicity against human MV4-11 cells after 96 hrs by MTT assay. The format is functional, cell-based. The settings on record: MV4-11, 96 h.
Data set [6] addresses Cyclin-dependent kinase 1 (Homo sapiens, UniProt P06493). The experiment in a line: Inhibition of CDK1.
Data set [7] deals with U2OS. Nature of the data set: Inhibition of Aurora kinase in nocodazole-synchronized human U2OS cells assessed as reduction of histone H3 serine-10 phosphorylation at 0.07 to 10 uM after 2 hrs immunofluorescence microscopy. The format is cell-based.
A further data set has as its system BXPC-3. The experiment in a line: Cytotoxicity against human BxPC3 cells after 96 hrs by MTT assay. The format is functional, cell-based. The settings on record: BXPC-3, 96 h.
For data set [8], the system named is A549. Nature of the data set: Effect on mitotic index in asynchronous human A549 cells assessed as appearance of misaligned chromosomes with shortened spindle fibres at 0.5 uM after 8 hrs […]. The format is functional, cell-based. For orientation: A flow cytometer gives signals particle by particle.
Data set [9] is described as follows: Fraction unbound in rat plasma by equilibrium dialysis. In kind it is ADME, cell-free.
Another data set concerns the target Aurora kinase B (Homo sapiens, UniProt Q96GD4). Nature of the data set: Inhibition of human recombinant Aurora B after 60 mins.
In another data set the test system is HL-60. Nature of the data set: Cytotoxicity against human HL60 cells after 96 hrs by MTT assay. In kind it is functional, cell-based. To be noted: HL-60, 96 h.
For a further data set, the system named is CCRF-CEM. The experiment in a line: Cytotoxicity against human CCRF-CEM cells after 96 hrs by MTT assay. In kind it is functional, cell-based.
The test system of data set [10] is A549. Nature of the data set: Cell cycle arrest in asynchronous human A549 cells assessed as accumulation of cyclin B-positive tetraploid cells at G2/M phase at 0.5 to 2 uM after 7 hrs by FACS analysis. The format is functional, cell-based.
Data set [11] can be described thus: Octanol-aqueous buffer partition coefficient, log D at pH 7.4 by shake-flask method. The format is physicochemical.
Data set [12] addresses Cyclin-dependent kinase 9 (Homo sapiens, UniProt P50750). Nature of the data set: Inhibition of CDK9.
Data set [13] can be described thus: Clearance in Wistar rat at 10 mg/kg, po after 24 hrs by LC/MS/MS analysis. In kind it is ADME, organism-based. Further details: dose 10 mg/kg, route oral. The settings on record: in vivo.
The next data set has as its target T1, Aurora kinase A (Homo sapiens, UniProt O14965).
T1 sequence (O14965 whole entry): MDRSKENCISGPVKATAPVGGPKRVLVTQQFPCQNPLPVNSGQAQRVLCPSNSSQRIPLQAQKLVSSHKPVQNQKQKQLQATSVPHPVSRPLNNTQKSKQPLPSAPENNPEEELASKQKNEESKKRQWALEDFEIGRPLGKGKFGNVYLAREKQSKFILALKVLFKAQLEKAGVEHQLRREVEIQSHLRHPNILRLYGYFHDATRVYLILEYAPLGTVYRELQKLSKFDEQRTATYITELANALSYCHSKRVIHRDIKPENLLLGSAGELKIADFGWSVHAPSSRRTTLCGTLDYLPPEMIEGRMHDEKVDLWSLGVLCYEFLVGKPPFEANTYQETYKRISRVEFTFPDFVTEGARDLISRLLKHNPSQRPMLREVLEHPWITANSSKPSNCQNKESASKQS
The experiment in a line: Inhibition of human recombinant Aurora A after 30 mins.

In a further data set the test system is HT-29. Nature of the data set: Cytotoxicity against human HT-29 cells after 96 hrs by MTT assay. In kind it is functional, cell-based. To be noted: HT-29, 96 h.
A short description of data set [14]: Aqueous solubility by turbidimetric analysis. The format is physicochemical.
In the next data set the test system is SAOS-2. Nature of the data set: Cytotoxicity against human Saos2 cells after 96 hrs by MTT assay. The settings on record: SAOS-2, 96 h. The format is functional, cell-based.
Another data set concerns K562. The experiment in a line: Cytotoxicity against human K562 cells after 96 hrs by MTT assay. In kind it is functional, cell-based. To be noted: K562, 96 h.
The next data set relates to HuP-T4. Nature of the data set: Cytotoxicity against human HUPT4 cells after 96 hrs by MTT assay. The format is functional, cell-based. To be noted: HuP-T4, 96 h.
Data set [15] can be described thus: Dissociation constant, pKa by pH-metric titration method. The format is physicochemical.
Data set [16] in a line: AUC (0 to 24 hrs) in Wistar rat at 10 mg/kg, po after 24 hrs by LC/MS/MS analysis. The settings on record: plasma. Further details: time < 24 hr, dose 10 mg/kg, route oral. The format is ADME, organism-based.
Data set [17] in a line: Cmax in Wistar rat at 10 mg/kg, po after 24 hrs by LC/MS/MS analysis. To be noted: in vivo. In kind it is ADME, organism-based. Also on record: dose 10 mg/kg, route oral.
The test system of the next data set is MIA PaCa-2. The experiment in a line: Cytotoxicity against human MIAPaCa2 cells after 96 hrs by MTT assay. In kind it is functional, cell-based. To be noted: MIA PaCa-2, 96 h.
The subject of data set [18] is A549. Nature of the data set: Cell cycle arrest in asynchronous human A549 cells assessed as accumulation of cyclin B-negative diploid cells at G1 phase at 0.5 uM after 24 hrs by FACS analysis. In kind it is functional, cell-based.
Data set [19] deals with Cyclin-dependent kinase 7 (Homo sapiens, UniProt P50613). Nature of the data set: Inhibition of CDK7.
Chain of Cyclin-dependent kinase 7 (P50613 whole entry): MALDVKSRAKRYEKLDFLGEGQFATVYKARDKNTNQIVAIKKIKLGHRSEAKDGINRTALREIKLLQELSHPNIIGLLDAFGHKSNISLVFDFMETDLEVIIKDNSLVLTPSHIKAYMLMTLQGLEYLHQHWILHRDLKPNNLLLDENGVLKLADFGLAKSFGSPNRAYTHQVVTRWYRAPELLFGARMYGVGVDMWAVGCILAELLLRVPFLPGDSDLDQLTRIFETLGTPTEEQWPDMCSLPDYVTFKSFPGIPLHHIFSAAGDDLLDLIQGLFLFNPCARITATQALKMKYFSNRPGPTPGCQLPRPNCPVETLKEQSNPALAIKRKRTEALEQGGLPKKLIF
The test system of another data set is HCT-116. Nature of the data set: Cytotoxicity against human HCT116 cells after 96 hrs by MTT assay. The format is functional, cell-based. To be noted: HCT-116, 96 h.
The next data set concerns NCI-H460. The experiment in a line: Cytotoxicity against human NCI-H460 cells after 96 hrs by MTT assay. In kind it is functional, cell-based. To be noted: NCI-H460, 96 h.
The subject of a further data set is COLO 205. Nature of the data set: Cytotoxicity against human COLO205 cells after 96 hrs by MTT assay. In kind it is functional, cell-based. To be noted: COLO 205, 96 h.
Data set [20] is described as follows: Elimination half life in Wistar rat at 10 mg/kg, po by LC/MS/MS analysis. Also on record: dose 10 mg/kg, route oral. The format is ADME, organism-based. The settings on record: in vivo, read-out: beta t1/2 (converted).
The next data set relates to HeLa. Nature of the data set: Cytotoxicity against human HeLa cells after 96 hrs by MTT assay. In kind it is functional, cell-based.
Data set [21] is described as follows: Inhibition of Aurora kinase in human A549 cells assessed as concentration required for half-maximal inhibition of histone H3 serine-10 phosphorylation after 7 hrs immunofluorescence microscopy. The format is cell-based. To be noted: A549, 7 h.
The next data set has as its system MCF7. The experiment in a line: Induction of p53 protein expression in human MCF7 cells at 150 nM after 7 hrs by fluorescent microscopy. In kind it is functional, cell-based.
Data set [22] deals with U2OS. The experiment in a line: Inhibition of Aurora kinase in asynchronous human U2OS cells assessed as reduction of histone H3 serine-10 phosphorylation at 150 nM after 7 hrs immunofluorescence microscopy. In kind it is cell-based.

In brackets after ≈: the same amount, converted by molar mass. Activity calls are given as the source filed them. No cut-off for these calls is given here.

Chain of Aurora kinase B (Q96GD4 whole entry): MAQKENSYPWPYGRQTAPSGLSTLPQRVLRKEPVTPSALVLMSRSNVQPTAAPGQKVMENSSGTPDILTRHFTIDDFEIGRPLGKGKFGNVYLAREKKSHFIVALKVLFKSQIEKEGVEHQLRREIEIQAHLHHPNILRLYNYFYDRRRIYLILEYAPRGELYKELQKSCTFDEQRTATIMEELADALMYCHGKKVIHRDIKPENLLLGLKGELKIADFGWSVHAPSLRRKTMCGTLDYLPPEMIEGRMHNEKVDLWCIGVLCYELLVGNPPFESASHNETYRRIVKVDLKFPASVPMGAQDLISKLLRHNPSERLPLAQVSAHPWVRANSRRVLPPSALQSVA
Chain of Cyclin-dependent kinase 1 (P06493 whole entry): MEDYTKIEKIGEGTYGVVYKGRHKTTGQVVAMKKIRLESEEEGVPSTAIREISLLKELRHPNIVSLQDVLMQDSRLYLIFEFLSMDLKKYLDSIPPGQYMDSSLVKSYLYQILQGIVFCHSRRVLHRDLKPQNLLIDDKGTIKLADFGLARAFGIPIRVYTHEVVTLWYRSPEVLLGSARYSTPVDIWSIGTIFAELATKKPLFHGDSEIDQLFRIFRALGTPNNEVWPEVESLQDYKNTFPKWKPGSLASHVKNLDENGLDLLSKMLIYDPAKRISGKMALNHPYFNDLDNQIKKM
Chain of Cyclin-dependent kinase 9 (P50750 whole entry): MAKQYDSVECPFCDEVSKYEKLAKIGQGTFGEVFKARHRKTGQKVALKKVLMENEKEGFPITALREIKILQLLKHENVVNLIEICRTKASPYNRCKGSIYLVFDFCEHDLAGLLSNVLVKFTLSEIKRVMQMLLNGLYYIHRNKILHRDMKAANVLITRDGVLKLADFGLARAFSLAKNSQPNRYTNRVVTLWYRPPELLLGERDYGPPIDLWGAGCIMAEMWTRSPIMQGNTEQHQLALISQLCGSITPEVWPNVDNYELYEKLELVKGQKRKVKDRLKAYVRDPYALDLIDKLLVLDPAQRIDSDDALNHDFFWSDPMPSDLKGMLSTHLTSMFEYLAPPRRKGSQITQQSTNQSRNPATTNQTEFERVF

Broadly, the bioavailability is dose-corrected exposure relative to a reference, in per cent. Read a low bioavailability as little systemic uptake. By Papp is commonly meant a coefficient for how fast a substance crosses the barrier. By IC50 is commonly meant the concentration that inhibits the measured activity by half. A word on the Ki: it is a measure of affinity in units of concentration, obtained from inhibition or displacement. By fraction unbound is commonly meant the share of the substance not bound to proteins or other matrix. As a reminder, the logD is the decadic logarithm of the distribution of all forms, ionised or not, between an organic phase and buffer at a given pH. The term CL/F denotes the apparent clearance, not corrected for the fraction that reaches the circulation. As usually defined, the kinetic solubility is solubility judged after dilution from a stock solution rather than from solid. The pKa is the pH at which an ionisable group is half protonated. Read a low pKa as a stronger acid or weaker base. As usually defined, the AUC(0-t) is the area under the concentration-time curve up to a stated or last time point. Lower therefore signals less exposure. Usually Cmax stands for the peak of the concentration-time curve. With `Cc1nc(C)c(-c2ccnc(Nc3ccc(N(C)C)cc3)n2)s1`, in [1], the bioavailability is 7%. Also, the clearance in the data set on Liver microsomes turned out to be 296 µL/min/mg. The apparent permeability coefficient (Papp) in data set [2] was found to be 49.2 ×10⁻⁶ cm/s. Besides, the IC50 in the data set with A2780 came to 157 nM; in data set [4] it was 110 nM; with MV4-11, 110 nM; in the data set on BXPC-3 it was 93 nM; with HL-60 it was 128 nM; in the data set with CCRF-CEM it was 170 nM. In addition, the half-inhibitory concentration (IC50) stood at 128 nM in the data set on HT-29; 320 nM with SAOS-2; 40 nM with K562; 156 nM in the data set on HuP-T4; 177 nM with MIA PaCa-2; 133 nM in the data set with HCT-116. Also, the IC50 with NCI-H460 is 180 nM; in the data set with COLO 205 it was 84 nM; in the data set with HeLa, 190 nM; in data set [21], 2600 nM. Further, the outcome in the data set on A549 [3], in the data set with A549 [8], in the data set on A549 [10] and with A549 [18] was Active. In addition, the values for the half-life in data set [5] and in data set [20] were 4.7 min and 4.4 h, respectively. For the same compound, the Ki was found to be 2520 nM in data set [6]; 15 nM at Aurora kinase B; 575 nM in data set [12]; 6.9 nM at Aurora kinase A; 4010 nM in [19]. For the same compound, in the data set on U2OS [7], the inhibition entry was “Active”. In data set [9], this compound returned an unbound share (fraction unbound) of 0.96. The same compound gave a log distribution coefficient (logD) in [11] of 1.33. Further, in data set [13], the apparent clearance CL/F was 70 mL/min/kg. Also, in data set [14], the kinetic solubility was determined as 20 µM (≈ 6.51 µg/mL). In addition, in data set [15], the pKa came to 5.5. The AUC(0-t) at 24 h in data set [16] was 6.9 µM·h. For the same compound, the highest level in [17] (Cmax) was 900 nM.
Take `Cc1nc(N)sc1-c1ccnc(Nc2cccc([N+](=O)[O-])c2)n1`: the results for the IC50 in the data set on A2780 and in the data set on MIA PaCa-2 were 48 nM and 139 nM, respectively. Also, the inhibition result in the data set on U2OS [7] was “Active”. In addition, the result with MCF7 and in the data set with U2OS [22] was Active.

The record behind these values is ChEMBL document CHEMBL1155519, “Discovery of N-phenyl-4-(thiazol-5-yl)pyrimidin-2-amine aurora kinase inhibitors” (J Med Chem, 2010).
